# Experimental data as given in patent US6780403B1, “Deodorants” (Kao Corporation, priority 1999, dated 2004).
# Columns and labels:
# [1] = Deodorization effect on ammonia odor (dessicator, Kitagawa type gas detector); conditions: 250 mg base agent, 50 mg of 1% ammonia aqueous solution, 2.5 liter dessicator, 20 minutes; relative to blank 1
# Method: Into a schale having a diameter of 4 cm was added 250 mg of the deodorant base agents obtained in Reference Examples 1 and 2, and 50 mg of a 1% ammonia aqueous solution was dropped thereon. The above-mentioned schale was allowed to stand still in a 2.5 liter dessicator for 20 minutes, then, the ammonia concentration (S) was measured by a Kitagawa type gas detector. Further, a schale containing no deodorant base agent was used as a blank 1 and a schale containing 250 mg of water added instead of a deodorant base agent was used as a blank 2, and the ammonia concentration was measured likewise. The ammonia concentration of the blank 1 was represented by C, and the deodorization rate was calculated according to the following formula. As Comparative Example 1, the deodorization effect on an ammonia odor was measured likewise in Example 1 using 250 mg of a solution obtained by dissolving 28 g (0.116 mol) of lauryl methacrylate which is a known deodorant base agent in 115 g of diethylene glycol monoethyl ether.
# (Measurement Method of Deodorization Ratio)
# Deodorization rate (%)=[(C−S)/C]×100
# S: ammonia gas concentration after 20 minutes (ppm)
# C: ammonia gas concentration of blank 1 (ppm)
# [2] = Deodorization effect on lower fatty acid (sensory evaluation); conditions: 150 mg of 1% aqueous lower fatty acid mixture 20/60/20; after 20 minutes; grades 0 to 3 (initial odor = 3), average of three examiners
# [3] = Deodorization effect on mercaptan (sensory evaluation, filter paper in beaker); conditions: 150 mg base agent, 50 mg 0.0002% methylmercaptan in propylene glycol; after 20 minutes; grades 0 to 3 (initial odor = 3), average of three examiners
# Method: Filter paper having a length of 7 cm and a width of 0.5 cm was impregnated with 150 mg of a deodorant base agent, subsequently, the same filter paper was impregnated with 50 mg of a 0.0002% solution of methylmercaptan in propylene glycol. The filter paper was placed in erected condition in a 3 liter beaker and wrapping film was covered on it and left for 20 minutes, then, a odor filling the beaker was subjected to sensory evaluation. The strength of the odor of methylmercaptan at the initial was defined as 3, and odors after 20 minutes were evaluated by three examiners based on four grades from 0 to 3, and the average value thereof was calculated and the first decimal was rounded off to give a deodorization effect.
# [4] = acid dissociation index (pK1, pK2) at 25° C.; assay type: physicochemical; conditions: for first acid dissociation index / second acid dissociation index: for the dibasic acid, source of value not given
# Method: The organic dibasic acid used as a deodorant in the present invention is selected from organic dibasic acids and/or salts thereof having a difference between the first acid dissociation index and the second acid dissociation index of 1.7 or more at 25° C. (hereinafter, described as deodorant organic dibasic acid). The acid dissociation index can be measured, for example, by a method (A) described in The Journal of Physical Chemistry vol.
# Further, previously obtained data may also be used. […] Further, the organic dibasic acid can be selected based on data bases (D) such as pKa BASE of Compudrug, and the like. The first acid dissociation index and the second acid dissociation index of the organic dibasic acid may be determined by any of the methods (A) to (D).
SMILES,Deodorization rate [1],Evaluation of odor [2],Evaluation of odor [3],first acid dissociation index [4],second acid dissociation index [4],difference of acid dissociation index ([4]; given in running text)
"O=C(O)[C@H]1CCCC[C@H]1C(=O)O [Deodorant base agent 1, cis-cyclohexane-1,2-dicarboxylic acid]",79%,1,2,,,
"O=C(O)CCC(=O)O [Comparative Example 2, succinic acid, reference compound]",33%,2,3,4.00,5.25,less than 1.7
"C=C(C)C(=O)OCCCCCCCCCCCC [Comparative Example 1, lauryl methacrylate, reference compound]",10%,2,3,,,
"O=C1OC(=O)C2C3C=CC(C3)C12 (centres unmarked) [Deodorant base agent 2, 5-norbornene-2,3-dicarboxylic acid anhydride]",88%,1,1,4.16,6.23,
